This is an account of results in PubChem BioAssay (NCI).

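The compound was tested at five concentrations on cells cultured in 96-well plates, with a 48-hour exposure period. The concentration for 50% growth inhibition is given as GI50. TGI: total growth inhibition.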 Where only a bound is given, the exact number is not on record here.

Common to all, as to assay: NCI tumour cell line growth inhibition, 48 h
For assay [1], the system named is SW-620 colon.
Assay [2] relates to SK-MEL-2 melanoma.
In assay [3] the test system is UACC-257 melanoma.
The subject of assay [4] is DU-145 prostate.
The subject of assay [5] is SNB-19 CNS.
In assay [6] the test system is SK-OV-3 ovarian.
The subject of assay [7] is NCI-H460 lung.
For assay [8], the system named is SR leukemia.
The subject of assay [9] is A549 NSCLC.
Assay [10] relates to NCI-H522 lung.
Assay [11] concerns MDA-N.

With `C=C(C)[C@@H]1CC[C@]2(C(=O)NC3CCCCC3)CC[C@]3(C)[C@H](CC[C@@H]4[C@@]5(C)CCCNC(C)(C)[C@@H]5CC[C@]43C)[C@@H]12`, the GI50 in assay [1] was 1670 nM; in assay [2] it was 1910 nM; in [3] it was 1.72 µM; in assay [4] it was 1.91 µM; in assay [5] it was 5510 nM; in assay [6], 1770 nM. Moreover, the GI50 in assay [7] is 1.78 µM. Besides, the TGI was 3.15 µM in assay [1]; 3.72 µM in assay [2]; 3.31 µM in [3]; 3.63 µM in [4]; 33.3 µM in [5]; 3.26 µM in [6]. The compound further registered a TGI in assay [7] of 3.3 µM.

As for `Cn1c(=O)c(-c2ccccc2)c(N=[N+]=[N-])c2ccccc21`, the TGI is more than 100 µM in [1]; more than 100 µM in [3]; 75.4 µM in [8]; more than 100 µM in assay [9]; more than 100 µM in assay [4]; 75.5 µM in assay [10]. In addition, the TGI in assay [5], in assay [11], in [6] and in assay [7] was more than 100 µM in each case.

`CC1(C)N=C(N)N=C(N)N1c1ccc(CCc2ccccc2)cc1`: the TGI in assay [1] was more than 100 µM; in [2], more than 100 µM; in assay [3], 32 µM; in [9], more than 100 µM; in [10], 33.9 µM; in assay [5] it was more than 41.1 µM. Besides, the TGI in assay [6] and in assay [7] was more than 100 µM in each case.

As to `CCC(/C=C/C1OC(=O)C=CC1C)=C\C(C)C/C=C/C(C)=C/C(C)C(=O)C(C)C(O)C(C)C/C(C)=C/C(=O)O` (centres undefined), the GI50 in assay [1] is 0.00244 nM; in [2] it was 0.0281 nM; in assay [3], 0.000294 µM; in assay [9], 0.0164 nM; in [10], 6.22 pM; in [5], 0.0253 nM. In [6], the GI50 is 0.0954 nM. The TGI in assay [1] came to 6.29 µM; in [3], 6.25 µM; in assay [8] it was 2.28e-05 µM; in assay [9] it was 3.96 µM; in assay [5], 13.2 µM; in assay [11], 0.000118 µM. The TGI in [6] amounted to 14.3 µM.

Turning to `COc1ccc2cc(/C=N/NC(=O)Nc3ccccc3)ccc2c1`, the TGI in assay [1], in [2], in [3], in assay [8], in [4] and in assay [5] was more than 100 µM in each case. For the same compound, the TGI in assay [11], in [6] and in assay [7] was more than 100 µM throughout.

As for `C[C@H](CCC(=O)O)[C@H]1CC[C@H]2[C@@H]3CC[C@@H]4C[C@H](O)CC[C@]4(C)[C@H]3C[C@H](O)[C@]12C`, the TGI in assay [1] was more than 100 µM; in assay [2] it was more than 100 µM; in assay [3], more than 100 µM; in [9] it was more than 100 µM; in [4] it was more than 100 µM; in assay [10], 86.7 µM. Also, the TGI is more than 100 µM in assay [5], more than 100 µM in assay [11], 78.1 µM in [6] and more than 100 µM in assay [7].

For `CC1(CCOCc2ccccc2)NC(=O)NC1=O` (centres undefined), the TGI in assay [1], in assay [2], in [3], in assay [8], in [9] and in assay [4] was more than 100 µM each time. Also, the TGI in [10], in [5], in [11] and in assay [7] was more than 100 µM throughout.

For the compound `Cc1[nH]nc(C(F)(F)F)c1N=NN1CCOCC1`, the TGI in assay [1] was determined as 5.64 µM; in assay [2], 27.1 µM; in assay [3], 24.4 µM; in assay [8], 2.77 µM; in [9] it was 24.7 µM; in assay [4], 13.4 µM. The TGI in [10] came out at 8.7 µM; in assay [5] it was 30.4 µM; in assay [6], 31.7 µM; in [7], 17.1 µM.

Take `c1ccc(CCNc2ccccn2)nc1`: the TGI in assay [1], in assay [2], in assay [3], in assay [9], in [4] and in assay [10] was more than 100 µM throughout. Further, the TGI in assay [5], in assay [11], in [6] and in assay [7] was more than 100 µM throughout.

Consider `CC(OC(C)(C)C)[C@H](NC(=O)OCC(Cl)(Cl)Cl)C(=O)O` (some centres undefined), for which the TGI in assay [1], in assay [2], in [3], in assay [8], in assay [9] and in [10] was more than 100 µM in each case. For the same compound, the TGI in assay [5], in assay [6] and in assay [7] was more than 100 µM throughout.
